Laboratory results: patent US12226412B2, “Heteroaryl-ketone fused azadecalin glucocorticoid receptor modulators” (Corcept Therapeutics, Inc., priority 2012, dated 2025)
Where two headings read alike, the source gives them in different places.

Tests used:
[1] = molecular target: T1, human recombinant GR (Homo sapiens, UniProt P04150); assay: Human glucocorticoid receptor (GR) fluorescence polarisation (FP) binding assay
T1 construct: purchased PanVera P2812
T1 sequence (P04150 1-777): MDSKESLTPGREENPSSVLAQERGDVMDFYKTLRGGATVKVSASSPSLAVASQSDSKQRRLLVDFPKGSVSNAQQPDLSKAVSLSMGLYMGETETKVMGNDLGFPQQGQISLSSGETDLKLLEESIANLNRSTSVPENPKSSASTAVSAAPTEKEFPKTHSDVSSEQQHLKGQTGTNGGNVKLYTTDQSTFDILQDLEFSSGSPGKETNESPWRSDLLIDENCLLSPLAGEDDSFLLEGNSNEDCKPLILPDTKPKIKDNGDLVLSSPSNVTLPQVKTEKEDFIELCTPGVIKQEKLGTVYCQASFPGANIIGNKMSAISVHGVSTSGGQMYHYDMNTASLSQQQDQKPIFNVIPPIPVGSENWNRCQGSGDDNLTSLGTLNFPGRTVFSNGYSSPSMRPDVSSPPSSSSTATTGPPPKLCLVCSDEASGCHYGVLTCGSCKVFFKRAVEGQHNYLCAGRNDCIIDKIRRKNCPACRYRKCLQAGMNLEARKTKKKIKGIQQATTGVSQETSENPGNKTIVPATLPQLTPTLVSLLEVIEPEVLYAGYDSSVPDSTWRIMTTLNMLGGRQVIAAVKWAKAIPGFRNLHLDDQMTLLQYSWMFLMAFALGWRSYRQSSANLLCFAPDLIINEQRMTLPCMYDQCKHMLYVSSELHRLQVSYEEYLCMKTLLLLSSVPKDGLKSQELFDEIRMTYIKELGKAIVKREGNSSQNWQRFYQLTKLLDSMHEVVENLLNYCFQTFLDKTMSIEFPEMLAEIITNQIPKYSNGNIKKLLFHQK
Description: Human Glucocorticoid Receptor (GR) Fluorescence Polarisation (FP) Binding Assay
The following is a description of a FP assay for measuring compound inhibition of labelled glucocorticoid binding to the human recombinant GR.
The binding affinity of test compounds was determined using a FP binding assay using human recombinant GR (PanVera P2812) and a fluorescent labelled glucocorticoid ligand (Fluorome GS Red) (PanVera P2894). The presence of inhibitors prevents the formation of a GS Red/GR complex resulting in a decrease in the measured polarisation value. The change in polarisation value in the presence of test compounds is used to calculate the binding affinity of the compound for GR.
This assay was performed in 384 well, black, round-bottom, polypropylene micro titre plates in a final volume of 20 μl. The assay contained 5 μl 1 nM GR (final concentration), 5 μl 0.5 nM Fluorome GS Red (final concentration) in the presence of 10 μl test compounds. Positive control wells (high polarisation) receive, 10 μl 2% (v: v) DMSO vehicle (1% (v/v) final concentration)+5 μl 1 nM GR and 5 μl 0.5 nM Fluorome GS Red. […] Assay blank background wells (used for normalisation) receive 15 μl 1× GS screening buffer+5 μl GR.
Compounds were prepared as solubilised solids at 10 mM in DMSO. On the day of assay, an 8 point half-log serial dilution (55 μl DMSO+25 μl compound solution) was prepared. A 1:50 dilution (1 μl compound solution+49 μl 1× GR screening buffer) was prepared for each compound. The compounds were prepared at 2× final assay concentration.
The plates were mixed and incubated for 4 hour at room temperature.
10× GR screening buffer (100 mM potassium phosphate pH 7.4, 200 mM Na2MoO4, 1 mM EDTA, 20% (v/v) DMSO). To prepare 1× GR screening buffer, combine 1 ml 10× GR screening buffer (PanVera P2814)+1 ml stabilising peptide (PanVera P2815)+7.95 ml 4° C. MQ water. Add 50 μl 1M DTT, vortex and place on ice until use.

[2] = system: induction of TAT by dexamethasone in HepG2 cells; assay: HepG2 tyrosine aminotransferase (TAT) assay; type: cell-based, human
Description: Example 21. HepG2 Tyrosine Aminotransferase (TAT) Assay
Glucocorticoid mediated activation of TAT occurs by transactivation of glucocorticoid response elements in the TAT promoter by glucocorticoid receptor agonist complex.
TAT activity was measured as outlined in the literature by A. Ali et al., J. Med. Chem., 2004, 47, 2441-2452.
HepG2 cells were cultured using MEME media supplemented with 10% (v/v) foetal bovine serum; 2 mM L-glutamine and 1% (v/v) NEAA at 37° C., 5%/95% (v/v) CO2/air. The HepG2 cells were counted and adjusted to yield a density of 0.125×10^6 cells/ml in RPMI 1640 without phenol red, 10% (v/v) charcoal stripped FBS, 2 mM L-glutamine and seeded at 25,000 cells/well in 200 μl into 96 well, sterile, tissue culture micro titre plates, and incubated at 37° C., 5% CO2 for 24 hours
Growth media was removed and replaced with assay media {RPMI 1640 without phenol red, 2 mM L-glutamine+10 μM forskolin}. […] Compounds were serially half log diluted in 100% (v/v) dimethylsupfoxide from a 10 mM stock.
HepG2 cells were then lysed with 30 μl of cell lysis buffer containing a protease inhibitor cocktail for 15 minutes at 4° C. 155 μl of substrate mixture was then added containing 5.4 mM Tyrosine sodium salt, 10.8 mM alpha ketoglutarate and 0.06 mM pyridoxal 5′ phosphate in 0.1M potassium phosphate buffer (pH 7.4). After 2 hours incubation at 37° C. the reaction was terminated by the addition of 15 μl of 10M aqueous potassium hydroxide solution, and the plates incubated for a further 30 minutes at 37° C. The TAT activity product was measured by absorbance at […].
[compound] and fitting the data to a 4 parameter logistic equation.

[3] = human recombinant GR, fluorescence polarisation binding assay, read-out: GR binding
[4] = HepG2 cells, challenge of 100 nM dexamethasone, Ki from IC50 by Cheng and Prusoff equation

CCn1cnc(S(=O)(=O)N2CCC3=Cc4c(cnn4-c4ccc(F)cc4)C[C@]3(C(=O)c3cc(C(F)(F)F)ccn3)C2)c1 [Example 11BY, (R)-(6-((1-ethyl-1H-imidazol-4-yl)sulfonyl)-1-(4-fluorophenyl)-4,4a,5,6,7,8-hexahydro-1H-pyrazolo[3,4-g]isoquinolin-4a-yl)(4-(trifluoromethyl)pyridin-2-yl)methanone]
Ki [1, 3]: < 0.5 nM | Ki [2, 4]: < 20 nM

O=C(c1ccccn1)[C@]12Cc3cnn(-c4ccc(F)cc4)c3C=C1CCN(S(=O)(=O)c1ccnc(C(F)(F)F)c1)C2 [Example 11BE, (R)-(1-(4-fluorophenyl)-6-((2-(trifluoromethyl)pyridin-4-yl)sulfonyl)-4,4a,5,6,7,8-hexahydro-1H-pyrazolo[3,4-g]isoquinolin-4a-yl)(pyridin-2-yl)methanone]
Ki [1, 3]: < 0.5 nM | Ki [2, 4]: 20 to 100 nM

O=C(c1ccco1)[C@]12Cc3cnn(-c4ccc(F)cc4)c3C=C1CCN(S(=O)(=O)c1ccc(C(F)(F)F)cc1)C2 [Example 1G, (R)-(1-(4-fluorophenyl)-6-((4-(trifluoromethyl)phenyl)sulfonyl)-4,4a,5,6,7,8-hexahydro-1H-pyrazolo[3,4-g]isoquinolin-4a-yl)(furan-2-yl)methanone]
Ki [1]: < 0.5 nM | Ki [2]: 20 to 100 nM

CCn1nccc1S(=O)(=O)N1CCC2=Cc3c(cnn3-c3ccc(F)cc3)C[C@]2(C(=O)c2cc(C(F)(F)F)ccn2)C1 [Example 2U, (R)-(6-((1-ethyl-1H-pyrazol-5-yl)sulfonyl)-1-(4-fluorophenyl)-4,4a,5,6,7,8-hexahydro-1H-pyrazolo[3,4-g]isoquinolin-4a-yl)(4-(trifluoromethyl)pyridin-2-yl)methanone]
Ki [1, 3]: > 1 nM | Ki [2, 4]: < 20 nM

O=C(c1ccccn1)[C@]12Cc3cnn(-c4ccc(F)cc4)c3C=C1CCN(S(=O)(=O)c1ccc(F)c(F)c1)C2 [Example 11P, (R)-(6-((3,4-difluorophenyl)sulfonyl)-1-(4-fluorophenyl)-4,4a,5,6,7,8-hexahydro-1H-pyrazolo[3,4-g]isoquinolin-4a-yl)(pyridin-2-yl)methanone]
Ki [1]: < 0.5 nM | Ki [2]: < 20 nM

CCc1ccnc(C(=O)[C@]23Cc4cnn(-c5ccc(F)cc5)c4C=C2CCN(S(=O)(=O)c2cccc(C(F)(F)F)n2)C3)c1 [Example 11AV, (R)-(4-ethylpyridin-2-yl) (1-(4-fluorophenyl)-6-((6-(trifluoromethyl)pyridin-2-yl)sulfonyl)-4,4a,5,6,7,8-hexahydro-1H-pyrazolo [3,4-g]isoquinolin-4a-yl)methanone]
Ki [1, 3]: < 0.5 nM | Ki [2, 4]: < 20 nM

O=C(c1ccccn1)[C@]12Cc3cnn(-c4ccc(F)cc4)c3C=C1CCN(S(=O)(=O)c1cn[nH]c1)C2 [Example 11BS, (R)-(6-((1H-pyrazol-4-yl)sulfonyl)-1-(4-fluorophenyl)-4,4a,5,6,7,8-hexahydro-1H-pyrazolo[3,4-g]isoquinolin-4a-yl)(pyridin-2-yl)methanone]
Ki [1, 3]: 0.5 to 1 nM | Ki [2, 4]: 20 to 100 nM

O=C(c1ccccn1)[C@]12Cc3cnn(-c4ccc(F)cc4)c3C=C1CCN(S(=O)(=O)c1ccc(C(F)(F)F)nc1)C2 [Example 2N, (R)-(1-(4-fluorophenyl)-6-((6-(trifluoromethyl)pyridin-3-yl)sulfonyl)-4,4a,5,6,7,8-hexahydro-1H-pyrazolo[3,4-g]isoquinolin-4a-yl) (pyridin-2-yl)methanone]
Ki [1, 3]: < 0.5 nM | Ki [2, 4]: < 20 nM

CCn1nccc1S(=O)(=O)N1CCC2=Cc3c(cnn3-c3ccc(F)cc3)C[C@]2(C(=O)c2nccs2)C1 [Example 12W, (R)-(6-((1-ethyl-1H-pyrazol-5-yl)sulfonyl)-1-(4-fluorophenyl)-4,4a,5,6,7,8-hexahydro-1H-pyrazolo[3,4-g]isoquinolin-4a-yl)(thiazol-2-yl)methanone]
Ki [1, 3]: > 1 nM | Ki [2, 4]: ≥ 100 nM

COc1ccc(S(=O)(=O)N2CCC3=Cc4c(cnn4-c4ccc(F)cc4)C[C@]3(C(=O)c3ccccn3)C2)cc1 [Example 2I, (R)-(1-(4-fluorophenyl)-6-((4-methoxyphenyl)sulfonyl)-4,4a,5,6,7,8-hexahydro-1H-pyrazolo[3,4-g]isoquinolin-4a-yl)(pyridin-2-yl)methanone]
Ki [1, 3]: < 0.5 nM | Ki [2, 4]: < 20 nM

Cc1ccnc(C(=O)[C@]23Cc4cnn(-c5ccc(F)cc5)c4C=C2CCN(S(=O)(=O)c2cccc(C(F)(F)F)c2)C3)c1 [Example 11AG, (R)-(1-(4-fluorophenyl)-6-((3-(trifluoromethyl)phenyl)sulfonyl)-4,4a,5,6,7,8-hexahydro-1H-pyrazolo[3,4-g]isoquinolin-4a-yl)(4-methylpyridin-2-yl)methanone]
Ki [1, 3]: < 0.5 nM | Ki [2, 4]: < 20 nM

Cc1ccnc(C(=O)[C@]23Cc4cnn(-c5ccc(F)cc5)c4C=C2CCN(S(=O)(=O)c2ccn(C)n2)C3)c1 [Example 11AK, (R)-(1-(4-fluorophenyl)-6-((1-methyl-1H-pyrazol-3-yl)sulfonyl)-4,4a,5,6,7,8-hexahydro-1H-pyrazolo[3,4-g]isoquinolin-4a-yl)(4-methylpyridin-2-yl)methanone]
Ki [1, 3]: < 0.5 nM | Ki [2, 4]: < 20 nM

O=C(c1ccccn1)[C@]12Cc3cnn(-c4ccc(F)cc4)c3C=C1CCN(S(=O)(=O)c1ccc(F)c(F)c1F)C2 [Example 11AC, (R)-(1-(4-fluorophenyl)-6-((2,3,4-trifluorophenyl)sulfonyl)-4,4a,5,6,7,8-hexahydro-1H-pyrazolo[3,4-g]isoquinolin-4a-yl)(pyridin-2-yl)methanone]
Ki [1, 3]: < 0.5 nM | Ki [2, 4]: < 20 nM

O=C(c1nccs1)[C@]12Cc3cnn(-c4ccc(F)cc4)c3C=C1CCN(S(=O)(=O)c1ccc(F)c(F)c1)C2 [Example 12P, (R)-(6-((3,4-difluorophenyl)sulfonyl)-1-(4-fluorophenyl)-4,4a,5,6,7,8-hexahydro-1H-pyrazolo[3,4-g]isoquinolin-4a-yl)(thiazol-2-yl)methanone]
Ki [1, 3]: < 0.5 nM | Ki [2, 4]: 20 to 100 nM

Cn1ncc(S(=O)(=O)N2CCC3=Cc4c(cnn4-c4ccc(F)cc4)C[C@]3(C(=O)c3ccccn3)C2)n1 (single isomer, unassigned) [Example 11DB]
Ki [1, 3]: < 0.5 nM | Ki [2, 4]: < 20 nM
